We go through 86 compounds from PubChem BioAssay AID2305 (GlaxoSmithKline (GSK), 2010).

Each structure is given as a SMILES string. Several values for one entry are separate records, joined by “and”; a condition that tells them apart may be missing. Identical values can stand only once.

The test relates to P. falciparum 3D7 growth, pLDH absorbance. The test is described as follows: P. falciparum 3D7 growth inhibition, dose response, strain 3D7 (AID 2305).

As usually defined, the IC50 is the concentration that gives 50% inhibition. `CN(C(=O)NCCc1ccccc1)C1CCN(CCCCCNC(=O)/C=C/c2ccc(Cl)c(Cl)c2)CC1` registered a half-inhibitory concentration (IC50) of 680 nM.

In turn, `COc1ccc(N(c2nc(-c3cc(Cl)ccc3Cl)cs2)C2CCNC2)cc1` (stereo unspecified) yielded an IC50 of 870 nM. `Cc1c(Cn2ncc(N3C[C@@H](C)N[C@@H](C)C3)c(Cl)c2=O)cccc1NC(=O)Nc1ccc(-c2ccccc2)cc1`: the IC50 is 600 nM. The compound `O=C(Nc1cccc(CN2CCCN(Cc3cccc(F)c3)CC2)c1)c1ccc(Cl)c(Cl)c1` gave a 50% inhibitory concentration (IC50) of 920 nM. Next, `CCOc1c(Br)cc(C)cc1CNCCCNc1nc2ccccc2[nH]1`: 670 nM; `COc1cccc(CNC(=O)c2cccc(-c3cccc(CN4CCC(N5CCCC5)CC4)c3)n2)c1`: 1030 nM; `CCOC(=O)CNC(=O)N1CCN(C(=O)NCC(=O)OCC)CC1`: 850 nM. Next, `COc1ccc(C(=C(C)CC(C)C(=O)O)c2ccccc2)cc1` (stereo unspecified): 840 nM.

With `Cc1nc(-c2cccc(Nc3nccc(NCC(O)c4cccc(F)c4)n3)c2)cs1` (stereo unspecified), the IC50 is 700 nM. The figure for `Cc1ccccc1CCNC(=O)c1cnc(N2CCN(c3ccncc3)CC2)c(Cl)c1` is 1060 nM; for `CS(=O)(=O)c1ccc(CCNCc2ccc(-c3ccc(CN(C(=O)c4cccc(C#N)c4)C4CCN(Cc5ccccc5)CC4)cc3)nc2)cc1` it is 980 nM; for `COc1ccc2nc(C)cc(N/N=C/C=C/c3ccccc3)c2c1` it is 700 nM. `Cc1ccc(CC(C)NCC(O)c2cccc(C(F)(F)F)c2)cc1F` (stereo unspecified): the IC50 was found to be 920 nM. Regarding `N#Cc1cc(C(=O)c2cc(Br)ccc2O)cn(C2CCCCC2)c1=O`, the IC50 stood at 910 nM.

The compound `COc1ccc(C(=O)Nc2ccc3nc(N4CCCCC4)cc(C)c3c2)cc1OC` registered an IC50 of 990 nM. The figure for `CCN(CC)CCn1c(=N)n(CC(O)c2ccc(Cl)c(Cl)c2)c2ccccc21` (stereo unspecified) is 790 nM; for `CNC(=O)CC(=O)NCCc1ccc(Cl)cc1` it is 810 nM. `Nc1cccc(CNCc2ccc(-c3cccc(-c4nc5ccccc5[nH]4)c3)cc2)c1` showed an IC50 of 710 nM. The figure for `CN(C)CCC(O)C=C(c1ccc(Cl)cc1)c1ccc(Cl)cc1` (stereo unspecified) is 950 nM; for `COCCN1CCN(Cc2ccc(-c3ccc(-c4nc5ccc(F)cc5[nH]4)cc3)cc2)CC1` it is 720 nM; for `CN(c1ccc(NC(=O)c2cccc(F)c2)cc1)C1CCCN(Cc2cccc(O)c2)C1` (stereo unspecified) it is 1300 nM.

For `O=C(/C=C/c1ccc(Cl)cc1)NC1CCC(CN2CCC(c3c[nH]c4ccccc34)CC2)CC1` (stereo unspecified), the IC50 was 800 nM and 730 nM. With `Cc1ccccc1N1CCN(c2ccc(C(=O)NC(C)C)cn2)CC1`, the half-inhibitory concentration (IC50) is 900 nM. The figure for `Cc1nnsc1C(=O)Nc1cccc(-c2cccc(-c3nc4ccc(F)cc4[nH]3)c2)c1` is 220 nM; for `O=c1cc(-c2cccc(C(F)(F)F)c2)nc(Nc2ccc(Cl)c(Cl)c2)[nH]1` it is 760 nM.

Compound `COc1c(C2CCN(CCCCNC(=O)c3cc(-c4ccc(Cl)cc4)sc3C)CC2)ccc2c1CCCC2` gave a half-maximal inhibitory concentration (IC50) of 630 nM.

Take `COc1cc2nc(NCc3ccc(S(N)(=O)=O)cc3)nc(Nc3ccc(Oc4ccccc4)cc3)c2cc1OC`: the half-maximal inhibitory concentration (IC50) was determined as 440 nM.

Compound `COc1ccc(C2CCN(CCCNC(=O)c3ccc(NC(=O)c4ccc(Cl)cc4)cc3)CC2)c(OC)c1` showed a concentration for half-maximal inhibition (IC50) of 760 nM. Compound `O=C(Cn1c(CCc2cccc(F)c2F)nc(=O)c2ccccc21)N(CCN1CCCCC1)Cc1ccc(-c2ccc(C(F)(F)F)cc2)cc1` displayed a half-inhibitory concentration (IC50) of 760 nM. Next, `Cc1nnc(N2C(=N)SC(=Cc3ccc(-c4ccc(OC(F)(F)F)cc4)o3)C2=O)s1`: 530 nM; `Cc1ccc(N2C(N)=NC(N)=NC2(C)C)cc1`: 40 nM; `CNc1ccc(CNCc2ccc(-c3ccc(-c4nc5c(C)cccc5[nH]4)s3)cc2)cc1`: 660 nM. The figure for `O=C(NCCCCCN1CCC(c2c[nH]c3ccccc23)CC1)c1ccc(-c2ccccc2)nc1` is 1020 nM.

Take `O=C(/C=C/c1ccc(Cl)c(Cl)c1)NCCCCCN1CC[C@H](NC(=O)c2ccc3c(c2)OCO3)C1`: the half-maximal inhibitory concentration (IC50) is 940 nM. Next, `CC(Oc1c(C2CCN(CCCCNC(=O)c3ccc(-c4ccc(Cl)cc4)cc3)CC2)ccc2c1CCCC2)C(N)=O` (stereo unspecified): 950 nM; `COc1ccc(CNC(=O)Nc2cc3cc(-c4ccc(CN(C)C)cc4)ccc3n3c(C)nnc23)cc1`: 850 nM; `COc1ccc2nccc(N3CCC(NCCNCc4cc5c(cn4)OCCO5)C3)c2n1` (stereo unspecified): 580 nM. The figure for `CCOc1ccc(Br)cc1/C=C/C(=O)Nc1ccc2c(c1)[C@@H]1CC[C@H]2N1C` is 1050 nM; for `CCOc1ccnc(=O)[nH]1` it is 460 nM; for `O=C(Nc1cc(C(F)(F)F)ccc1Cl)c1ccc(Cn2cc(Br)cn2)cc1` it is 1350 nM. The figure for `CCn1ccc2c(N3CCCS3(=O)=O)cc(C(=O)N[C@@H](Cc3ccccc3)[C@H](O)CNC(C)(C)c3cccc(OC)c3)cc21` is 40 nM; for `CC(=O)Nc1nc(C(=O)Nc2cccc(-c3ccc(-c4nc5c(C)cccc5[nH]4)s3)c2)cs1` it is 220 nM.

Take `O=C(Nc1cccc(CN2CCN(C(=O)c3ccccc3)CC2)c1)c1ccco1`: the half-maximal inhibitory concentration (IC50) is 890 nM. Next, `Cc1ccc2c(=O)n(C)c(=O)n(C)c2n1`: 820 nM; `Oc1ccc(Cc2cc(Oc3c(I)cc(CCc4ncc[nH]4)cc3I)ccc2O)cc1`: 710 nM. `COc1cc2nc(N3CCC(CNC(=O)c4ccc(-c5ccccc5)cc4)CC3)nc(N)c2cc1OC` displayed a concentration for half-maximal inhibition (IC50) of 570 nM. Next, `CCOC(=O)c1c(NC(NC(=O)c2ccc(C(C)(C)C)cc2)C(Cl)(Cl)Cl)sc2c1CCCC2` (stereo unspecified): 810 nM; `CC1(C)CCC(=Cc2ccc(Cl)cc2)CC1(O)Cn1ccnc1` (stereo unspecified): 740 nM; `Cc1ccc(Cn2ncc(N3CCNCC3)c(Cl)c2=O)cc1NC(=O)Nc1ccc(-c2ccccc2)cc1`: 1120 nM.

For the compound `CCNc1cc(C(=O)N[C@@H](Cc2ccccc2)[C@H](O)CNC(C)(C)Cc2ccccc2)cc(N2CCCC2=O)c1`, the IC50 was 260 nM.

`Cc1c(C)c2c(c(C)c1O)CC[C@](C)(C(=O)N1CCC(CCN3CCC(c4c[nH]c5ccccc45)CC3)CC1)O2` displayed a half-maximal inhibitory concentration (IC50) of 830 nM. The figure for `CNC(=O)c1ccc2[nH]cc(C3CCN(CC4CCC(NC(=O)/C=C/c5ccccc5Cl)CC4)CC3)c2c1` (stereo unspecified) is 840 nM. In turn, `CCCCn1c(C)c(C(=O)OCC)c2cc(OC(C)=O)c(Br)cc21` showed a concentration for half-maximal inhibition (IC50) of 630 nM. For `Nc1nc(N)c2c(Cl)c(N(Cc3ccccc3)Cc3ccccc3)ccc2n1`, the IC50 was 190 nM. Next, `CCCc1ccc(C2CCN(CCCCNC(=O)c3ccc(NC(=O)c4ccc(Cl)cc4)cc3)CC2)cc1`: 630 nM; `O=C(Nc1cccc(Cl)c1Cl)Nc1ccnc2ccccc12`: 750 nM; `O=C(Nc1ccc([N+](=O)[O-])cc1)Nc1cc(OCC(F)(F)F)cc(OCC(F)(F)F)c1`: 470 nM. Next, `C#CCOc1ccc(CC(C)NCC(O)c2cccc(C(F)(F)F)c2)cc1` (stereo unspecified): 1190 nM and 1030 nM; `O=[N+]([O-])c1cc(C(c2ccc(O)c([N+](=O)[O-])c2)C(Cl)(Cl)Cl)ccc1O`: 730 nM; `CC(=O)Nc1ccc(OCCCN(Cc2ccccc2OC(F)(F)F)c2ccc(C(F)(F)F)c(C#N)c2)c(Cl)c1`: 810 nM. The figure for `COc1ccc2c(c1)nc(CN=C(N)N)n2Cc1ccc(Cl)cc1` is 360 nM. With `CCOC(=O)c1cnc2c(C(F)(F)F)cccc2c1Nc1ccc(O)cc1`, the IC50 stood at 630 nM. Next, `CCC(CC)CN1C(=O)C(C)(c2ccccc2)N=C1N` (stereo unspecified): 1060 nM; `CCOC(=O)c1ccc(NC(=O)Nc2cccc(-c3ccc(-c4nc5ccc(C(F)(F)F)cc5[nH]4)cc3)c2)cc1`: 210 nM; `N#Cc1ccc(N(CCOc2ccc(Cl)cc2)Cc2ccccc2C(F)(F)F)cc1C(F)(F)F`: 660 nM. Next, `CCCCCC(C)c1cc(O)c2c(c1)OC(C)(C)C=C2C1=CCN(Cc2ccccc2)CC1` (stereo unspecified): 780 nM. Consider `Cn1cncc1CCCN(Cc1ccc(-c2ccc(C(F)(F)F)cc2)cc1)C(=O)Cn1c(CCc2cccc(F)c2F)cc(=O)c2cccnc21`, for which the half-maximal inhibitory concentration (IC50) was determined as 1250 nM. For the compound `O=C(/C=C/c1ccc(Cl)c(Cl)c1)N1CCC(NCc2c[nH]c3ccccc23)CC1`, the IC50 worked out at 1070 nM.

On to `COc1cc2c(=O)c(Cc3ccc(Cl)cc3)c(C)[nH]c2cc1F`, for which the IC50 was 1160 nM. The figure for `O=C(c1ccc(O)c(-c2cc(Cl)cc(Cl)c2)c1)N(CCO)CCO` is 910 nM. Next, `COc1ccc(-c2cccc(NC(=O)c3ccc(C#N)cc3)c2)cc1CN1CCCN(C)CC1`: 760 nM; `COC(=O)/C=C/C(=O)N[C@@H]1CC[C@@]2(O)[C@H]3Cc4ccc(O)c5c4[C@@]2(CCN3CC2CC2)[C@H]1O5`: 640 nM. Next, `COc1ccc(-c2nonc2NC(=O)c2cccc(Cl)c2)cc1OC`: 880 nM; `COc1cc(Nc2nc(N)c3cc(OC)c(OC)cc3n2)cc(OC)c1`: 270 nM. `COc1cc2nc(N3CCC(CNC(=O)c4ccc(-c5ccc(C(=O)N(C)C)cc5OCCN(C)C)cc4)CC3)nc(N)c2cc1OC` displayed an IC50 of 840 nM. Compound `O=C(/C=C/c1ccc(Cl)c(Cl)c1)NCCCCCN1C2CCC1CC(c1c[nH]c3ccccc13)C2` (stereo unspecified) yielded a 50% inhibitory concentration (IC50) of 840 nM. Next, `COc1ccc(OC)c(C=CC(=O)NC2CCC(CN3CCC(c4c[nH]c5ccccc45)CC3)CC2)c1` (stereo unspecified): 650 nM; `O=C(/C=C/c1c(Cl)cccc1Cl)NC1CCC(CN2CCC(Cc3cc4ccccc4[nH]3)CC2)CC1` (stereo unspecified): 970 nM; `NS(=O)(=O)c1ccc(CNC(=O)c2cnc3c(O)cccc3c2Nc2cccc(NC(=O)c3ccc(Cl)c(Cl)c3)c2)cc1`: 1720 nM. The figure for `COc1cc2c(cc1N(C(C)C)S(=O)(=O)c1sc3ccc(Cl)cc3c1C)CCNCC2` is 1050 nM; for `NC(N)=NC(=O)Nc1ccc(Cl)c(Cl)c1` it is 1040 nM. Next, `O=S(=O)(NCCN1CCCC1)c1ccc(-c2ccc(CNCc3ccccc3)cc2)cc1F`: 1290 nM; `O=C(Nc1cccc(C(F)(F)F)c1)c1ccc(S(=O)(=O)NCC2CCCN2CC2CCCCC2)cc1` (stereo unspecified): 750 nM; `CCCCCCCN1CCC(CC(=O)Nc2ccnc3ccc(OC)cc23)CC1`: 720 nM.

`CC(CN(C)C)C(=O)Nc1ccc(-c2ccc(-c3nc4ccccc4[nH]3)cc2)cc1` (stereo unspecified) displayed an IC50 of 740 nM. The figure for `CS(=O)(=O)c1cccc(-c2ccc3oc(C(N)=O)c(NC(=O)c4cccs4)c3c2)c1` is 590 nM.
